Measured values as given in BindingDB's records for patent US8703811 (Genzyme, 2014).

Tests used:
[1] = target: T1, Dihydroorotate dehydrogenase (fumarate) (Saccharomyces cerevisiae (strain ATCC 204508 / S288c), UniProt P28272); test: Enzymatic Assays
T1 sequence (P28272 whole entry): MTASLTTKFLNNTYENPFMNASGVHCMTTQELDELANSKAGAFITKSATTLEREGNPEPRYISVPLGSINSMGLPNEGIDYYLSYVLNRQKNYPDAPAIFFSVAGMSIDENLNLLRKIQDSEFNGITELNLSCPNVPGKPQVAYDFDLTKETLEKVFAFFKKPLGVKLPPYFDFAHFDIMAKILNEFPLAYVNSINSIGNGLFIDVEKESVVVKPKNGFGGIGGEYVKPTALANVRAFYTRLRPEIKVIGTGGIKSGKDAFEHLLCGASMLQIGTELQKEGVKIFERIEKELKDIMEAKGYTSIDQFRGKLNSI
Excerpt: (§1) Type 2 DHODH activity was monitored with either the direct assay measuring the formation of orotate or via a chromogen reduction assay using DCIP. Although the extinction coefficient and absorption wavelength are preferable for the chromogen reduction assay, the inorganic electron acceptor DCIP can be utilized by DHODH as the final electron acceptor in lieu of CoQn when the endogenous substrate is at a low concentration. As such, the direct assay was used to measure the binding affinity of pfDHODH to CoQD and L-DHO. The enzymatic reaction was performed by varying the L-DHO concentration (1-400 μM) or CoQD concentration (1-200 μM) while keeping the other substrate constant and in excess.

[2] = target: T2, Dihydroorotate dehydrogenase (quinone), mitochondrial [100-517] (Plasmodium berghei (strain Anka), UniProt A0A509AEH5); test: Enzymatic Assays
T2 construct: 100-517
T2 sequence (A0A509AEH5 whole entry): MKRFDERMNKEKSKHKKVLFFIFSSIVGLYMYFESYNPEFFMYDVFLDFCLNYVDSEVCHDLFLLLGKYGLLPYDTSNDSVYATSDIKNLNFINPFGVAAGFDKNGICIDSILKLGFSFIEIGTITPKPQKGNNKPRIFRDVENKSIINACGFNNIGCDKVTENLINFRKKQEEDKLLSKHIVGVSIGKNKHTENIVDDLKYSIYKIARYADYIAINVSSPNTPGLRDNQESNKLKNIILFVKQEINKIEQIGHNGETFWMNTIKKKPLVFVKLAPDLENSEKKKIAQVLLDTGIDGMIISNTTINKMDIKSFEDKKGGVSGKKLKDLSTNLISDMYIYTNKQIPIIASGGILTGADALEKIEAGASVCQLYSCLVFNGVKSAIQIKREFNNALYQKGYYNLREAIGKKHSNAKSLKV
Excerpt: as §1

Structure (SMILES)	IC50 [1]	IC50 [2]
Cc1ccccc1/C=C/c1cc(O)c2ccccc2n1 [US8703811, 2]	> 10 µM	–
Fc1cc(I)ccc1Nc1ccnc2cc(Cl)ccc12 [US8703811, 4]	–	> 10 µM
